Experimental findings from patent US7087622B2, “Pyridone compounds as inhibitors of bacterial type III protein secreation systems” (priority 2004, dated 2006) are described below.

A value given as a limit tells only on which side of the number the result lay.

Format in all cases: cell-based
Assay [1] concerns SPI1 type III protein secretion system (SipB secretion). Briefly: Secondary assay: Type III-dependent protein secretion of the SipB polypeptide by S. enterica (immunoblot). The note with it: Salmonella enterica, read-out: SipB IC50(uM). On the procedure: Secondary assay: Type III-dependent protein secretion of the SipB polypeptide by S. enterica. The SipB protein of S. enterica is another effector of the SPI1 type III protein secretion system from S. enterica. In this cell-based procedure, the Type III-dependent secretion of SipB from the bacterial cytoplasm to the extracellular medium was measured through its reactivity with a cognate mouse monoclonal.
Salmonella enterica cells growing either in the presence or in the absence of inhibitors are induced for the production of SipB. Following an established period of growth the cells are sedimented and the amount of SipB present in the supernatant is quantified with a scanning imager following application of immunoblot techniques. Detection may employ an anti-SipB mouse monoclonal antibody (e.g., obtained from Jorge Galan, SUNY at Stony Brook, N.Y.) followed by treatment with commercially available sheep anti-mouse polyclonal antibody conjugated with horseradish peroxidase. Thereafter the membrane is treated with a peroxidase chemiluminescent substrate and exposed to film for an appropriate exposure time. Inhibition may be measured relative to untreated controls.

In assay [2] the test system is type III protein secretion system of P. aeruginosa PA103 (ExoU secretion). Kind of assay: Tertiary assay: Type III-dependent secretion of ExoU by P. aeruginosa PA103 (SDS-PAGE band quantitation). To be noted: Pseudomonas aeruginosa, ExoU secreted into extracellular medium. The text has this:
Tertiary assay: inhibition of Type III protein secretion of effectors from a Pseudomonas aeruginosa system. Type III protein secretion is used by P. aeruginosa to secrete several essential virulence determinants. One effector of the type III protein secretion system of P. aeruginosa PA103 is the virulence determinants ExoU.
The amount of Type III-dependent secretion of ExoU by P. aeruginosa PA103 can be determined in a cell-based assay by quantification of the 73.9 kDa ExoU protein secreted into the extracellular medium. Such quantitation can be achieved by growing strain PA103 in a deferrated medium in the presence of nitrilotriacetic acid (an inducer of Type III protein secretion in P. aeruginosa) and either in the presence or absence of putative inhibitors. After a prolonged growth period, the cells are sedimented and the supernatants concentrated by ammonium sulfate precipitation. The proteins in the resuspended pellets are separated by electrophoresis on SDS-polyacrylamide gels. After staining gels with Colloidal Blue™, the 73.9 kDa ExoU band is quantitated by scanning through an imager. The effects of inhibitors on the intensity of the ExoU band may be measured relative to that of untreated controls.

In assay [3] the test system is SPI1 type III protein secretion system (SopE-Bla secretion). Briefly: Primary assay: Type III protein secretion of the chimeric SopE-Bla polypeptide by Salmonella enterica (nitrocefin hydrolysis). To be noted: read-out: SopE IC50(uM). The text has this: Primary assay: Type III protein secretion of the chimeric SopÉ-Bla polypeptide by Salmonella enterica. This procedure is a cell-based assay that measures the type III-dependent secretion by Salmonella enterica of a plasmid-encoded chimeric polypeptide whose synthesis can be regulated, and which is endowed with an enzymatic activity that can be monitored calorimetrically by hydrolysis of a substrate that is unable to penetrate into the bacterial cytoplasm within the time constraints of the reaction. Thus, the colorimetric reaction is not influenced by SopÉ-Bla polypeptide in the bacterial cytoplasm. Instead, it effectively measures the amount of polypeptide that has been secreted from the S. enterica cytoplasm to the extracellular medium via type III system protein secretion.
The SopÉ-Bla recombinant polypeptide consists of two functionally distinct domains spliced together. The N-terminus domain is encoded by a polynucleotide region specifying the signal for type III secretion of the SopE polypeptide of S. enterica, an effector of the SPI1 type III protein secretion system. The C-terminus domain of SopÉ-Bla consists of a 263 amino acid peptide sequence that corresponds to the TEM-1 β-lactamase expressed by plasmid pBR322 but without its N-terminal signal sequence. The TEM-1 β-lactamase part of the SopÉ-Bla chimeric polypeptide is used as a reporter enzyme. It is capable of hydrolyzing nitrocefin resulting in a product whose accumulation can be monitored by colorimetric detection. The secretion of the SopÉ-Bla chimeric polypeptide from the cytoplasm to the extracellular medium is dependent on type III protein secretion.
For this procedure, cells grown under conditions known to favor a functional SPI1 secretion system are induced for expression of the SopÉ-Bla protein and grown either in the presence or in the absence of putative inhibitors for determined time. Nitrocefin is then added to the various cultures and its hydrolysis are used for quantitation. An inhibitor of Type III protein secretion is generally a compound that reduces the signal of the enzymatic reaction by decreasing the amount of SopÉ-Bla secreted into the extracellular medium.

With `O=C(Nc1cc(-c2ccc(-c3ccccc3)cc2)cn(C(CSCc2ccccc2)C(=O)O)c1=O)c1ccc(C(F)(F)F)cc1` (stereo in doubt) [Compound 14, (R)-3-Benzylsulfanyl-2-[5-biphenyl-4-yl-2-oxo-3-(4-trifluoromethylbenzoylamino)-2H-pyridi-1-yl]propionic acid], the 50% inhibitory concentration (IC50) in assay [1] was 7.1 µM; in assay [2] it was 31.6 µM; in assay [3], 31.3 µM.

For the molecule `O=C(Nc1cc(-c2ccc(Oc3ccccc3)cc2)cn(C(CSCc2ccccc2)C(=O)O)c1=O)c1ccc(C(F)(F)F)cc1` (stereo in doubt) [Compound 15, (R)-3-Benzylsulfanyl-2-[2-oxo-5-(4-phenoxyphenyl)-3-(4-trifluoromethyl-benzoylamino)-2H-pyridin-1-yl]propionic acid], the figures for the IC50 in assay [1], in assay [2] and in assay [3] were 67.9 µM, 83.4 µM and 9.1 µM, respectively.

On to `O=C(Nc1cc(-c2cccc3ccccc23)cn([C@@H](Cc2ccccc2)C(=O)O)c1=O)c1ccc(C(F)(F)F)cc1` [Compound 1, (S)-2-[5-Naphthalen-1-yl-2-oxo-3-(4-trifluoromethylbenzoylamino)-2H-pyridin-1-yl]-3-phenylpropionic acid], for which the IC50 in assay [1] came to 82.8 µM; in assay [2] it was 82.8 µM; in assay [3] it was 14.4 µM.

For the molecule `O=C(Nc1cc(-c2ccc(Oc3ccccc3)cc2)cn([C@@H](Cc2ccccc2)C(=O)O)c1=O)c1ccc(C(F)(F)F)cc1` [Compound 4, (S)-2-[2-Oxo-5-(4-phenoxyphenyl)-3-(4-trifluoromethylbenzoylamino)-2H-pyridin-1-yl]-3-phenylpropionic acid], the IC50 stood at 84.7 µM in assay [1], 84.7 µM in assay [2] and 6.3 µM in assay [3].

As to `O=Cc1ccc(-c2cc(NC(=O)c3ccc(C(F)(F)F)cc3)c(=O)n([C@@H](Cc3ccccc3)C(=O)O)c2)cc1` [Compound 5, (S)-2-[5-(4-Formylphenyl)-2-oxo-3-(4-trifluoromethylbenzoylamino)-2H-pyridin-1-yl]-3-phenylpropionic acid], the 50% inhibitory concentration (IC50) in assay [1] was above 100 µM; in assay [2] it was above 100 µM; in assay [3] it was 49.9 µM.

Consider `COC(=O)c1ccc(-c2cc(NC(=O)c3ccc(C(F)(F)F)cc3)c(=O)n([C@@H](Cc3ccccc3)C(=O)O)c2)cc1` [Compound 6, (S)-4-[1-(1-Carboxy-2-phenethyl)-6-oxo-5-(4-trifluoromethylbenzoylamino)-1,6-dihydro-pyridin-3-yl]benzoic acid methyl ester], for which the figures for the IC50 in assay [1], in assay [2] and in assay [3] were above 100 µM, above 100 µM and 53.6 µM, respectively.

Turning to `O=C(Nc1cc(-c2cccc3ccccc23)cn([C@@H](COCc2ccccc2)C(=O)O)c1=O)c1ccc(C(F)(F)F)cc1` [Compound 8, (S)-3-Benzyloxy-2-[5-naphthalen-1-yl-2-oxo-3-(4-trifluoromethylbenzoylamino)-2H-pyridin-1-yl]propionic acid], the IC50 was 49.2 µM in assay [1], above 100 µM in assay [2] and 29.5 µM in assay [3].

As for `O=C(Nc1cc(-c2ccc(Oc3ccccc3)cc2)cn([C@@H](COCc2ccccc2)C(=O)O)c1=O)c1ccc(C(F)(F)F)cc1` [Compound 9, (S)-3-Benzyloxy-2-[2-oxo-5-(4-phenoxyphenyl)-3-(4-trifluoromethyl-benzoylamino)-2H-pyridin-1-yl]propionic acid], the half-maximal inhibitory concentration (IC50) in assay [1] was 26.2 µM; in assay [2], above 100 µM; in assay [3], 10.1 µM.

Take `O=C(Nc1cc(-c2ccccc2Oc2ccccc2)cn([C@@H](COCc2ccccc2)C(=O)O)c1=O)c1ccc(C(F)(F)F)cc1` [Compound 10, (S)-3-Benzyloxy-2-[2-oxo-5-(2-phenoxyphenyl)-3-(4-trifluoromethyl-benzoylamino)-2H-pyridin-1-yl]propionic acid]: the concentration for half-maximal inhibition (IC50) in assay [1] is 37.4 µM; in assay [2], above 100 µM; in assay [3], 27 µM.

Consider `O=C(Nc1cc(-c2ccc(Cl)c(Cl)c2)cn(C(Cc2ccc(Cl)cc2)C(=O)O)c1=O)c1ccc(C(F)(F)F)cc1` (stereo not shown) [Compound 20, 3-(4-Chlorophenyl)-2-[5-(3,4-dichloro-phenyl)-2-oxo-3-(4-trifluoromethyl-benzoylamino)-2H-pyridin-1-yl]propionic acid], for which the IC50 in assay [1] was above 100 µM; in assay [2], above 100 µM; in assay [3], 2.7 µM.

Consider `O=C(Nc1cc(-c2ccc(F)cc2F)cn(C(Cc2ccc(Cl)cc2)C(=O)O)c1=O)c1ccc(C(F)(F)F)cc1` (stereo not shown) [Compound 21, 3-(4-Chlorophenyl)-2-[5-(2,4-difluorophenyl)-2-oxo-3-(4-trifluoromethyl-benzoylamino)-2H-pyridin-1-yl]propionic acid], for which the values for the IC50 in assay [1], in assay [2] and in assay [3] were 79 µM, 61.2 µM and 13.5 µM, respectively.

As to `O=C(Nc1cc(-c2cccc(C(F)(F)F)c2)cn(C(Cc2ccc(Cl)cc2)C(=O)O)c1=O)c1ccc(-c2ccccc2)cc1` (stereo not shown) [Compound 22, 2-[3-[(Biphenyl-4-carbonyl)amino]-2-oxo-5-(3-trifluoromethylphenyl)-2H-pyridin-1-yl]-3-(4-chlorophenyl)propionic acid], the concentration for half-maximal inhibition (IC50) in assay [1] is 38.3 µM; in assay [2], above 100 µM; in assay [3], 3.4 µM.

As for `O=C(Nc1cc(-c2cccc3c2sc2ccccc23)cn(C(Cc2ccc(Cl)cc2)C(=O)O)c1=O)c1ccc(C(F)(F)F)cc1` (stereo not shown) [Compound 24, 3-(4-Chlorophenyl)-2-[5-dibenzothiophen-4-yl-2-oxo-3-(4-trifluoromethyl-benzoylamino)-2H-pyridin-1-yl]propionic acid], the half-maximal inhibitory concentration (IC50) in assay [1] stood at 67.1 µM; in assay [2], 62.4 µM; in assay [3], 1.6 µM.

As to `O=C(Nc1cc(-c2cccc(O)c2)cn(C(Cc2ccc(Cl)cc2)C(=O)O)c1=O)c1ccc(C(F)(F)F)cc1` (stereo not shown) [Compound 30, 3-(4-Chlorophenyl)-2-[5-(3-hydroxyphenyl)-2-oxo-3-(4-trifluoromethyl-benzoylamino)-2H-pyridin-1-yl]propionic acid], the IC50 in assay [1] was 33.4 µM; in assay [2], above 100 µM; in assay [3] it was 19.3 µM.

`O=C(Nc1cc(-c2ccc(Cl)cc2)cn(C(Cc2ccc(Cl)cc2)C(=O)O)c1=O)c1ccc(-c2ccccc2)cc1` (stereo not shown) [Compound 33, 2-[3-[(Biphenyl-4-carbonyl)amino]-5-(4-chlorophenyl)-2-oxo-2H-pyridin-1-yl]-3(4-chlorophenyl)propionic acid]: the IC50 is 39 µM in assay [1], above 50 µM in assay [2] and 7.6 µM in assay [3].

As for `O=C(Nc1cc(-c2ccc(Cl)cc2)cn(C(Cc2ccc(Cl)cc2)C(=O)O)c1=O)c1ccc(Oc2ccccc2)cc1` (stereo not shown) [Compound 52, 3-(4-Chlorophenyl)-2-[5-(4-chlorophenyl)-2-oxo-3-(4-phenoxybenzoylamino)-2H-pyridin 1-yl]propionic acid], the half-inhibitory concentration (IC50) in assay [1] is above 100 µM; in assay [3] it was 9 µM.

Take `O=C(Nc1cc(-c2ccc(C(F)(F)F)cc2)cn(C(Cc2ccc(Cl)cc2)C(=O)O)c1=O)c1ccc(Oc2ccccc2)cc1` (stereo not shown) [Compound 54, 3-(4-Chlorophenyl)-2-[2-oxo-3-(4-phenoxybenzoylamino)-5-(4-trifluoromethyl-phenyl)-2H-pyridin-1-yl]propionic acid]: the IC50 in assay [1] is above 100 µM; in assay [3], 16.6 µM.
